Experiments:
[1] = in vivo calciuric activity, calcium levels in rat urine; settings: relative activity (A = 1)
[2] = tested on: murine keratinocytes; experiment: antiproliferative activity in murine keratinocytes (standard in vitro protocol); type: cell-based; settings: Mus musculus, Keratinocyte, read-out: Antiproliferative IC50
[3] = target: T1, human recombinant VDR (Homo sapiens, UniProt P11473); experiment: competitive binding to the human VDR
T1 construct: purchased Biomol SE-140
T1 sequence (P11473 1-427): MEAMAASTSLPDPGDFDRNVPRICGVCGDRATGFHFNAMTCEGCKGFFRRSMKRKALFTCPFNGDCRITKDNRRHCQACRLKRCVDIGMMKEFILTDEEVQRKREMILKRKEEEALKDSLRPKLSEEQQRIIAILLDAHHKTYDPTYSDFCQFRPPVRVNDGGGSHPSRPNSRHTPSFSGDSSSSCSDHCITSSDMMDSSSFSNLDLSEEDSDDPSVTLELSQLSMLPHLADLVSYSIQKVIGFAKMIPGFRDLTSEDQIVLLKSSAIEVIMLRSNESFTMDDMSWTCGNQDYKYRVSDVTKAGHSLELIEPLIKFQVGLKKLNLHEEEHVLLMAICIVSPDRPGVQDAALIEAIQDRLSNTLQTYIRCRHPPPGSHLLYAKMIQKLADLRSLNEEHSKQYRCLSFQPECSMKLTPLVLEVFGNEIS

Q: With `C=C1/C(=C\C=C2/CCC[C@]3(C)[C@@H]([C@H](C)CCCC(C)(C)O)CC[C@@H]23)C[C@@H](O)C[C@@H]1O` [A, 1α,25-dihydroxyvitamin D3, reference compound] as the compound, how does the “Calciuria Activity Compared to 1” value [1] read?
A: 1

Q: And the IC50 [2]?
A: 80 nM

Q: Which “Calciuria Activity Compared to 1” value [1] does the source give for `C=C1/C(=C\C=C2/CCC[C@]3(C)[C@@H]([C@H](C)COCC4=CCCCC4(C)C)CC[C@@H]23)C[C@@H](O)C[C@@H]1O` [Analog 1d] here?
A: <0.02

Q: What about the IC50 [3] of the same compound?
A: 300 nM

Q: And the IC50 [2]?
A: 50 nM

From patent publication US9481646B2, “Low calcemic, highly antiproliferative, analogs of calcitriol” (The Johns Hopkins University, priority 2007, dated 2016)
